Measurements from patent publication US20240300999A1, “PEPTIDES FOR REGULATING GLUCOSE” (priority 2021, published 2024).

Assays:
L6 myotubes [1] = assay: Glucose uptake (2-deoxy-D-[3H]glucose) screening assay in cultured L6 myotubes; assay type: cell-based, rat; settings: for Glucose Uptake (fold activity to control), Insulin (−) / Glucose Uptake (fold activity to control), Insulin (+): synthetic peptides 1 pg/mL (each), mean ± SEM
L6 myotubes [2] = assay: as above; assay type: cell-based, rat; settings: for Concentration at which inhibition of glucose uptake was exhibited / Concentration at which stimulation of glucose uptake was exhibited: L6 myotubes; for Bioactivity: Table 4, identified peptides; for Glucose Uptake (fold activity to control), Insulin (−) / Glucose Uptake (fold activity to control), Insulin (+): synthetic peptides 1 ng/mL (each), mean ± SEM
Description: Screening assays were performed as follows. L6 rat myoblasts (courtesy of Dr. Amira Klip, Hospital for Sick Children, Toronto, Canada) were grown and maintained in monolayer culture in alpha-MEM containing 2% (v/v) fetal bovine serum in an atmosphere of 5% CO2 at 37° C. L6 myoblasts were plated in 12-well or 24-well plates at 20,000 cells/mL, replacing the media every two days until complete differentiation into myotubes (7 days post-plating).
Once completely differentiated, myotubes were serum deprived (alpha-MEM with 0% FBS) for 3 h and treated or not with SPF (1 ng/ml or 1 μg/mL) for 2 h without (insulin-independent) or with 100 nM insulin (insulin-dependent) during the last 45 min. Cells were rinsed once with glucose-free HEPES-buffered saline solution pH 7.4 (140 mM NaCl, 20 mM HEPES/Na, 5 mM KCl, 2.5 mM MgSO4 and 1 mM CaCl2)), and were subsequently incubated for 8 min with 10 µM 2-deoxy-D-glucose containing 0.3 μCi/mL 2-deoxy-D-[3H]glucose in the same buffer. After incubation in transport medium, cells were rinsed three times with ice-cold saline solution (0.9% NaCl) and stored at −20° C. Cells were disrupted by adding 1 mL of 50 mM NaOH to plates with agitation for 15 min. Cell-incorporated radioactivity was measured using a Perkin Elmer Tricarb liquid scintillation counter. Protein concentrations were determined by the micro bicinchoninic acid method (BCA) using a bovine serum albumin (BSA) standard curve (ThermoScientific, Waltham, Mass, USA), and the results expressed in pM/min/mg protein, calculated using the following equation: […]
where DPM (sample) is the number of disintegrations per minute (DPM) measured for the tested sample, C is the concentration of protein (mg), DPM (2DG) is the number of DPM measure for the solution of radioactive 2-deoxy-D-[3H] glucose for 1 pmol and equal to 72.2025 dpm/pmol, and t is the incubation time with 2-deoxy-D-[3H] glucose, and reported in terms of relative activity to the control sample in the absence of insulin. Statistical analysis was performed in Microsoft Excel using a two-tailed Student's t-test assuming equal variance.

[3] = 1 pg/mL, insulin state not distinguished
[4] = 1 ng/mL, insulin state not distinguished (presence or absence)

Row | Substance | Effect on glucose uptake (in words) (L6 myotubes [1]; [3]) | Effect on glucose uptake (in words) (L6 myotubes [1]; 1 pg/mL, presence of insulin) | Glucose Uptake (fold activity to control), Insulin (−) (L6 myotubes [1]; absence of insulin) | Glucose Uptake (fold activity to control), Insulin (+) (L6 myotubes [1]; presence of insulin) | Effect on glucose uptake (in words) (L6 myotubes [2]; [4]) | Effect on glucose uptake (in words) (L6 myotubes [2]; 1 ng/mL, presence of insulin) | Concentration at which inhibition of glucose uptake was exhibited (L6 myotubes [2]) | Concentration at which stimulation of glucose uptake was exhibited (L6 myotubes [2]) | Bioactivity (L6 myotubes [2]) | Glucose Uptake (fold activity to control), Insulin (−) (L6 myotubes [2]; absence of insulin) | Glucose Uptake (fold activity to control), Insulin (+) (L6 myotubes [2]; presence of insulin) | Effect on glucose uptake (in words) (L6 myotubes [1]; 1 pg/mL (each peptide), absence of insulin) | Effect on glucose uptake (in words) (L6 myotubes [2]; 1 ng/mL (each peptide), absence of insulin)
1 | Ile-Gly-Tyr (IGY) [chemically synthesized tripeptide, Ile-X-Tyr motif] | inhibiting effect | inhibited glucose uptake | 0.98 ± 0.06 fold activity to control | 1.49 ± 0.10 fold activity to control | stimulating effect | stimulated glucose uptake | 2.8 pM | 2.8 nM | Modulates glucose uptake | 1.05 ± 0.06 fold activity to control | 2.02 ± 0.05 fold activity to control | – | –
2 | Ile-Gly-Ile | – | – | – | – | No significant effect | – | – | – | – | 1.04 ± 0.04 fold activity to control | 1.75 ± 0.17 fold activity to control | – | –
3 | Ile-Ala-Ile | – | – | – | – | No significant effect | – | – | – | – | 1.04 ± 0.04 fold activity to control | 1.80 ± 0.09 fold activity to control | – | –
4 | Ile-Ile-Ile | – | – | – | – | No significant effect | – | – | – | – | 1.00 ± 0.04 fold activity to control | 2.02 ± 0.27 fold activity to control | – | –
5 | Ile-Ala-Tyr (IAY) [chemically synthesized tripeptide, Ile-X-Tyr motif] | inhibiting effect | inhibited glucose uptake | 0.86 ± 0.04 fold activity to control | 1.55 ± 0.04 fold activity to control | stimulating effect | stimulated glucose uptake | 2.7 pM | 2.7 nM | Modulates glucose uptake | 1.13 ± 0.05 fold activity to control | 1.97 ± 0.08 fold activity to control | inhibited glucose uptake | stimulated glucose uptake
6 | Ile-Ile-Tyr | – | – | 0.97 ± 0.04 fold activity to control | 1.61 ± 0.07 fold activity to control | did not significantly affect | – | – | – | – | 1.06 ± 0.03 fold activity to control | 1.88 ± 0.11 fold activity to control | – | –
